Results on 4 molecules are retold here after patent US20260325538A1, “THERAPY” (priority 2023, published 2026).

Each structure is given as a SMILES string.

Assay [1] concerns Klebsiella pneumoniae Kpn St147 (NDM-1 and KPC-2). As to the kind of experiment: MIC determination of cefepime with zinc chelator and avibactam (checkerboard, broth microdilution). The format is cell-based. The conditions noted are these: with FEP and zinc chelator. As for the experimental part:
(§1) Antimicrobial susceptibility testing (AST) by broth microdilution was performed according to The European Committee on Antimicrobial Susceptibility Testing. Reading guide for broth microdilution. Version 4.0, 2022 (see: http://www.eucast.org).
(§2) Checkerboard 96-well plates (Corning 3788) were made by conducting serial two-fold dilutions of cefepime in cation-adjusted Mueller Hinton II broth (caMHB; Thermo Scientific, T3462), in columns across the microtiter plate (64-0.03 μg/ml). Additionally, avibactam was added to rows 3 to 8 in concentrations of 64, 16, 8, 4, 1 and 0.25 μg/ml, respectively. The zinc chelator was added to the wells of the plate, where applicable. Three plates were made per experiment, one without the zinc chelator (plate 1), one with 16 μg/ml of the zinc chelator (plate 2) and one with 32 μg/ml of the zinc chelator (plate 3). The first row in all plates was used as a positive control for cefepime only, and the second row included the zinc chelator in addition to cefepime (no avibactam added to rows 1 or 2). The zinc chelator was added at the indicated concentration, to rows 3-8 of plates 2 and 3.
The effect of the combination of zinc chelator/FEP/avibactam was tested on a clinically isolated Klebsiella pneumoniae Kpn St147 actively constitutionally expressing the two resistance mechanisms NDM-1 and KPC-2 simultaneously. As a negative control, bacteria+FEP was tested alone. As a positive control, bacteria+FEP+zinc chelator was used. In Tables 1 and 2, concentrations (μg/ml) of FEP are given in the top row left to right and avibactam concentrations (μg/ml) are given top to bottom in column 1.
(§3) The fractional inhibitory concentration (FIC) is defined as the concentration that kills when used in combination with another agent divided by the concentration that has the same effect when used alone. The FIC index (FICI) for the combination of two agents is the sum of their individual FIC values. […] The European Committee for Antimicrobial Susceptibility Testing (EUCAST) of the European Society of Clinical Microbiology and Infectious Diseases (ESCMID) 2000 adopts the following definitions to determine the susceptibility of bacteria to an antimicrobial agent (see EUCAST Definitive Document E. Def 1.2: Terminology relating to methods for the determination of susceptibility of bacteria to antimicrobial agents. Clin. Microbiol. Infect. 2000; 6(9): 503-508): • FICI value≤0.5; synergy • 0.5<FICI value≤1; additive effect • 1<FICI value≤2; indifferent effect • FICI≥2; antagonistic effect
To test for synergy, all data were subjected to the following formula in which A=zinc chelator; B=cefepime; and C=avibactam:
(§4) ΣFICI=MICA(combination)/MICA (alone)+MICB(combination)/MICB (alone)+MICC(combination)/MICC (alone)

The test system is the same in assay [2]. Briefly: MIC determination of ceftazidime with zinc chelator and avibactam (checkerboard, broth microdilution). Particulars: with CAZ and zinc chelator. The format is cell-based.
From the text: as §3, §1
as §2, with “CAZ” for “cefepime”, “Three plates were made per experiment, one without the zinc chelator (plate 1), one with 16 μg/ml of the zinc chelator (plate 2) and one with 32 μg/ml of the zinc chelator (plate 3).” left out, “concentration” for “concentration,”
The effect of the combination of zinc chelator/CAZ/avibactam was tested on a clinically isolated Klebsiella pneumoniae Kpn St147 actively constitutionally expressing the two resistance mechanisms NDM-1 and KPC-2 simultaneously. As a negative control, bacteria+CAZ was tested alone. As a positive control, bacteria+CAZ+zinc chelator was used. In Tables 3 and 4, concentrations (μg/ml) of CAZ are given in the top row left to right and avibactam concentrations (μg/ml) are given top to bottom in column 1.
as §4
A general note: Broth dilution looks for growth in wells or tubes with falling amounts of substance.

The subject of the next assay is NDM. Particulars: cited from earlier work.
The subject of assay [3] is gram-negative bacteria with MBL, for example Klebsiella pneumoniae, E. coli and Pseudomonas aeruginosa. The conditions noted are these: meropenem used alone; cited from earlier work.
The next assay deals with MBL class IMP. Particulars: in combination with cefepime; cited from earlier work.
The subject of a further assay is MBL-producers. The conditions noted are these: in combination with cefepime; cited from earlier work.

In the case of `NC(=O)[C@@H]1CC[C@@H]2CN1C(=O)N2OS(=O)(=O)O` [Avibactam, avibactam], the “FICI Avibactam” value in assay [1] (avibactam 0.25 μg/mL) stood at 0.0001; in assay [1] (avibactam 1 μg/mL), 0.0005; in assay [1] (avibactam 4 μg/mL), 0.0020; in assay [1] (avibactam 8 μg/mL), 0.0039; in assay [1] (avibactam 16 μg/mL) it was 0.0078; in assay [2] (avibactam 0.25 μg/mL), 0.0001. Besides, the “FICI Avibactam” value in assay [2] (avibactam 1 μg/mL) was 0.0005; in assay [2] (avibactam 4 μg/mL), 0.0020; in assay [2] (avibactam 8 μg/mL), 0.0039; in assay [2] (avibactam 16 μg/mL) it was 0.0078.

`N[C@@H](CN[C@@H](CN[C@@H](CC(=O)O)C(=O)O)C(=O)O)C(=O)O` [aspergillomarasmine A]: the in vivo activity result in the assay on NDM (mouse models) was “shown in vivo activity in mouse models”. The “doses required to reverse carbapenem resistance” value in the assay on NDM (mouse, in vivo) is reported as “relatively high doses”.

For `C[C@@H](O)[C@H]1C(=O)N2C(C(=O)O)=C(S[C@@H]3CN[C@H](C(=O)N(C)C)C3)[C@H](C)[C@H]12` [meropenem], in assay [3], the “sensitivity of gram-negative bacteria with MBL” value was “resistant to the antibiotic”.

Regarding `NCCN[C@H]1CC[C@H](CC(=O)N[C@H]2Cc3cccc(C(=O)O)c3OB2O)CC1` [taniborbactam], the “effect against MBL class IMP” value with MBL class IMP was “no effect”. Moreover, in the assay on MBL-producers, the “activity against MBL-producers” value is listed as “potent activity”.
